# Measurements as given in patent US6429212B1, “Medicinal composition” (Ishihara Sangyo Kaisha Ltd., priority 1996, dated 2002).
# Experiments:
# [1] = system: TNF-α production or secretion by human leukemia cells HL-60 (TPA stimulation); test: Influence on TNF-α production or secretion by HL-60 cells stimulated by TPA (ELISA of supernatant); assay type: cell-based; conditions: for Amount of TNF (%), TPA alone = 100% / amount of TNF-α in the supernatant, TPA alone = 100%: HL-60, TPA 10 nM; for Amount of TNF (%), TPA alone = 100%: 16 hours (Test Example 3); for amount of TNF-α, TPA alone = 100%: HL-60, TPA stimulation (Table 11); for amount of TNF-α in the supernatant, TPA alone = 100%: 16 hours (Table 9)
# Experimental: (§1) Human leukemia cells HL-60 produce tumor necrosis factor (TNF-α) by stimulation of Okadaic acid (9,10-Deepithio-9,10-didehydroacanthifolicin) or 12O-tetradecanoyl phorbol-13-acetate (TPA). Influences of the compounds of the present invention to production or secretion of TNF-α by them were observed.
# The same operation was carried out as in Test Example 1, except that TPA (produced by Sigma) having a final concentration of 10 nM was used, instead of Okadaic acid having a final concentration of 50 nM.
# The values in the Table are values obtained by supposing the amount of TNF-α in the supernatant of the culture medium when treated only with TPA having a final concentration of 10 nM, 100%.
# Human leukemia cells (HL-60) produce tumor necrosis factor (TNF-α) by stimulation of 12O-tetradecanoyl phorbol-13-acetate (TPA). The influences of the compounds of the present invention to production of TNF-αby it were observed.
# (§2) Human leukemia cells (HL-60) were cultured by using a RPMI 1640 culture medium (including 5% fetal bovine serum), in a carbonic acid gas incubator (5% CO2, humidified, 37° C.). Then, the cells were pre-cultured in a RPMI 1640 culture medium (including 10% fetal bovine serum). TPA was added thereto, so that the final concentration was 10 nM based on the HL-60 cells (5×10^5 cells/ml) in an exponentially growing stage. Then, the compound of the present invention was added thereto so that the predetermined concentration could be obtained, to prepare a cell suspension, which was then cultured in a carbonic gas incubator (5% CO2, humidified, 37° C.). In this culture, a multiplate having 24 holes (produced by Corning) was used, and the cell suspension was injected in an amount of 0.5 ml per hole, to culture the cells.
# 16 hours after the culture started, the cells were removed by centrifugation(1000-2000 rpm×10 min), and the amount of TNF-α in the supernatant was measured in accordance with the method of Amersham, by using human TNF-α ELISA system (produced by Amersham).
# The values are obtained by supposing the amount of TNF-α when treated only with TPA having a final concentration of 10 nM, 100%.
# The influences of the compounds of the present invention to production or secretion of TNF-α by TPA stimulation were observed, in the same manner as in Test Example 2.
# [2] = system: TNF-α production or secretion by human leukemia cells HL-60 (Okadaic acid stimulation); test: Influence on TNF-α production or secretion by HL-60 cells stimulated by Okadaic acid (ELISA of supernatant); assay type: cell-based; conditions: for amount of TNF-α in the supernatant, Okadaic acid alone = 100%: HL-60, Okadaic acid 50 nM, 16 hours (Table 8)
# Experimental: as §1
# as §2, with “bovine serum). Okadaic acid was added” for “bovine serum). TPA was added”, “concentration was 50 nM based” for “concentration was 10 nM based”, “a carbonic acid gas incubator” for “a carbonic gas incubator”
# 16 hours after the culture started, the cells were removed by centrifugation (1000-2000 rpm×10 min), and the amount of TNF-α in the supernatant was measured in accordance with the method of Amersham, by using human TNF-α ELISA system (produced by Amersham).
# The values in the Table are values obtained by supposing the amount of TNF-αin the supernatant of the culture medium when treated only with Okadaic acid having a final concentration of 50 nM, 100%.
# Influences of the compounds of the present invention to production or secretion of TNF-α by Okadaic acid stimulation were observed, in the same manner as in Test Example 1.
# [3] = system: angiogenesis under skin of mice; test: Angiogenesis under skin of mice (b-FGF matrigel, amount of hemoglobin); assay type: in vivo, BALB/c male mice; parameters: key to Amount of hemoglobin, value in parentheses (Control = 100): % of control (control = 100), hemoglobin per matrigel
# Experimental: By subcutaneously injecting a mixture having recombinant human fibroblast growth factor-basic added to matrigel, to the back of a mice, angiogenesis occurs under skin of the mice. By measuring the amount of hemoglobin in matrigel, angiogenesis can be quantified. Influences of the compounds of the present invention to angiogenesis were observed.
# Matrigel (trademark; basement membrane matrix, phenol is not included, purchased from Becton Dickinson Labware) was added to Dulbecco's modified Eagle's medium (purchased from Sigma), so that the concentration was 9 mg/ml. Recombinant Human Fibroblast Growth Factor-basic (b-FGF, produced by Intergen) was added thereto, so that the concentration was 2 μg/700 μl. The mixture was subcutaneously injected to 6-week BALB/c male mice (Charles River Japan Inc.) in an amount of 700 μl per mouse. Everyday after matrigel injection, a suspension having the compound of the present invention added to 0.8% Tween 80 (purchased from Nacalai Tesque), so that the predetermined concentration could be obtained, was intraperitoneally injected to the mice. 8 days after matrigel injection, matrigel was taken out from the mice, which was then placed in 200 μl of 1% NH4OH at room temperature for 4 hours, to extract hemoglobin. The extraction and matrigel together were subjected to centrifugal separation (10000 rpm, 5 min). 100 μl of the obtained supernatant and 500 μl of Drabkin's reagent (purchased from Sigma) were mixed and left at room temperature. After left more than 15 minutes, absorbance of the supernatant at a wavelength of 540 nm was measured by using a spectrophotometer SPECTRA max 250 (produced by Molecular Devices). The amount of hemoglobin in the supernatant was obtained from the standard curve prepared by using hemoglobin standard (purchased from Sigma), and the amount of hemoglobin per matrigel obtained from a mouse was calculated.
# The amount of the hemoglobin in each treatment fraction was corrected by the amount of hemoglobin wherein matrigel having no b-FGF added was injected to the mice, and 0.8% Tween 80 as a solvent alone was injected everyday.
# Influences of the compounds of the present invention to angiogenesis under skin of mice were observed, in the same manner as in Test Example 8.
# [4] = compound 1 μM, HL-60, Okadaic acid stimulation (Table 14)
# [5] = compound 3 μM, HL-60, Okadaic acid stimulation (Table 14)
# [6] = compound 10 μM, HL-60, Okadaic acid stimulation (Table 14)
# [7] = compound 30 μM, HL-60, Okadaic acid stimulation (Table 14)
# [8] = compound 100 μM, HL-60, Okadaic acid stimulation (Table 14)
compound,measurement,setting,value
"CC(C)c1cccc(C(C)C)c1N1C(=O)c2cc3ccccc3cc2C1=O [Compound B-3, N-(2,6-diisopropylphenyl) 2,3-naphthalimide]","Amount of TNF (%), TPA alone = 100%",[1]; compound 10 μM,134%
"CC(C)c1cccc(C(C)C)c1N1C(=O)c2ccccc2C1=S [Compound 174, N-(2,6-diisopropylphenyl)thiophthalimide]","amount of TNF-α, TPA alone = 100%",[1]; compound 1 μM,332%
same,"amount of TNF-α, TPA alone = 100%",[1]; compound 10 μM,682%
same,"amount of TNF-α, TPA alone = 100%",[1]; compound 100 μM,1326%
same,"amount of TNF-α, Okadaic acid alone = 100%","[2]; compound 1 μM, HL-60, Okadaic acid stimulation (Table 10)",96%
same,"amount of TNF-α, Okadaic acid alone = 100%","[2]; compound 10 μM, HL-60, Okadaic acid stimulation (Table 10)",15%
same,"amount of TNF-α, Okadaic acid alone = 100%","[2]; compound 100 μM, HL-60, Okadaic acid stimulation (Table 10)",0%
same,"Amount of hemoglobin, value in parentheses (dose 0 = 100)","[3]; 100 mg/kg intraperitoneally everyday, 8 days after matrigel injection (Table 12)",54
same,Amount of hemoglobin,"[3]; 100 mg/kg intraperitoneally everyday, 8 days after matrigel injection, dose 0 = 307.3 (Table 12)",164.8 μg/gel
"C[C@@H](c1ccccc1)N1C(=O)c2c(F)c(F)c(F)c(F)c2C1=O [Compound 17, (S)-2-(1-phenylethyl)-4,5,6,7-tetrafluoro-1H-isoindole-1,3-dione]","amount of TNF-α in the supernatant, TPA alone = 100%",[1]; compound 10 nM,102%
same,"amount of TNF-α in the supernatant, TPA alone = 100%",[1]; compound 100 nM,120%
same,"amount of TNF-α in the supernatant, TPA alone = 100%",[1]; compound 0.3 μM,143%
same,"amount of TNF-α in the supernatant, Okadaic acid alone = 100%",[2]; compound 1 nM,100%
same,"amount of TNF-α in the supernatant, Okadaic acid alone = 100%",[2]; compound 10 nM,99%
same,"amount of TNF-α in the supernatant, Okadaic acid alone = 100%",[2]; compound 100 nM,95%
same,"amount of TNF-α in the supernatant, Okadaic acid alone = 100%",[2]; compound 0.3 μM,70%
same,"Amount of hemoglobin, value in parentheses (Control = 100)","[3]; 1 mg/kg, experiment (b) (Table 15)",21
same,Amount of hemoglobin,"[3]; 1 mg/kg, experiment (b), Control 83.3 (Table 15)",17.3 μg/gel
same,"Amount of hemoglobin, value in parentheses (Control = 100)","[3]; 5 mg/kg, experiment (b) (Table 15)",31
same,Amount of hemoglobin,"[3]; 5 mg/kg, experiment (b), Control 83.3 (Table 15)",25.7 μg/gel
"C[C@@H](c1cccc2ccccc12)N1C(=O)c2c(F)c(F)c(F)c(F)c2C1=O [Compound 49, (S)-2-(1-naphthylethyl)-4,5,6,7-tetrafluoro-1H-isoindole-1,3-dione]","amount of TNF-α in the supernatant, TPA alone = 100%",[1]; compound 10 nM,100%
same,"amount of TNF-α in the supernatant, TPA alone = 100%",[1]; compound 100 nM,99%
same,"amount of TNF-α in the supernatant, TPA alone = 100%",[1]; compound 0.3 μM,101%
same,"amount of TNF-α in the supernatant, Okadaic acid alone = 100%",[2]; compound 1 nM,100%
same,"amount of TNF-α in the supernatant, Okadaic acid alone = 100%",[2]; compound 10 nM,102%
same,"amount of TNF-α in the supernatant, Okadaic acid alone = 100%",[2]; compound 100 nM,100%
same,"amount of TNF-α in the supernatant, Okadaic acid alone = 100%",[2]; compound 0.3 μM,101%
"CC(C)c1cccc(C(C)C)c1N1C(=O)Cc2ccccc2C1=O [Compound A-3, N-(2.6-diisopropylphenyl)-homophthalimide]","Amount of TNF (%), TPA alone = 100%",[1]; compound 10 μM,258%
"C[C@@H](C1CCCCC1)N1C(=O)c2c(F)c(F)c(F)c(F)c2C1=O [Compound 68, (S)-2-(1-cyclohexylethyl)-4,5,6,7-tetrafluoro-1H-isoindole-1,3-dione]","amount of TNF-α in the supernatant, TPA alone = 100%",[1]; compound 10 nM,103%
same,"amount of TNF-α in the supernatant, TPA alone = 100%",[1]; compound 100 nM,115%
same,"amount of TNF-α in the supernatant, TPA alone = 100%",[1]; compound 0.3 μM,124%
same,"amount of TNF-α in the supernatant, Okadaic acid alone = 100%",[2]; compound 1 nM,102%
same,"amount of TNF-α in the supernatant, Okadaic acid alone = 100%",[2]; compound 10 nM,101%
same,"amount of TNF-α in the supernatant, Okadaic acid alone = 100%",[2]; compound 100 nM,96%
same,"amount of TNF-α in the supernatant, Okadaic acid alone = 100%",[2]; compound 0.3 μM,65%
"CC(C)c1cccc(C(C)C)c1N1C(=O)c2c(F)c(F)c(F)c(F)c2C1=O [Compound 203, N-(2,6-diisopropylphenyl)-4,5,6,7-tetra-fluoro-phthalimide]","amount of TNF-α, Okadaic acid alone = 100%","[2]; compound 1 nM, HL-60, Okadaic acid stimulation (Table 14)",100%
same,"amount of TNF-α, Okadaic acid alone = 100%","[2]; compound 3 nM, HL-60, Okadaic acid stimulation (Table 14)",93%
same,"amount of TNF-α, Okadaic acid alone = 100%","[2]; compound 10 nM, HL-60, Okadaic acid stimulation (Table 14)",75%
same,"amount of TNF-α, Okadaic acid alone = 100%","[2]; compound 30 nM, HL-60, Okadaic acid stimulation (Table 14)",42%
same,"amount of TNF-α, Okadaic acid alone = 100%","[2]; compound 100 nM, HL-60, Okadaic acid stimulation (Table 14)",0%
same,"Amount of hemoglobin, value in parentheses (Control = 100)","[3]; 1 mg/kg, experiment (a) (Table 15)",69
same,Amount of hemoglobin,"[3]; 1 mg/kg, experiment (a), Control 307.3 (Table 15)",211.4 μg/gel
"CC(C)c1cccc(C(C)C)c1N1C(=O)c2ccccc2C1=O [Compound 202, N-(2.6-diisopropylphenyl)-phthalimide]","amount of TNF-α, Okadaic acid alone = 100%",[2]; [4],100%
same,"amount of TNF-α, Okadaic acid alone = 100%",[2]; [5],80%
same,"amount of TNF-α, Okadaic acid alone = 100%",[2]; [6],43%
same,"amount of TNF-α, Okadaic acid alone = 100%",[2]; [7],20%
same,"amount of TNF-α, Okadaic acid alone = 100%",[2]; [8],9%
same,"Amount of hemoglobin, value in parentheses (Control = 100)","[3]; 10 mg/kg, experiment (a) (Table 15)",77
same,Amount of hemoglobin,"[3]; 10 mg/kg, experiment (a), Control 307.3 (Table 15)",235.4 μg/gel
same,"Amount of hemoglobin, value in parentheses (Control = 100)","[3]; 100 mg/kg, experiment (a) (Table 15)",50
same,Amount of hemoglobin,"[3]; 100 mg/kg, experiment (a), Control 307.3 (Table 15)",152.5 μg/gel
"O=C1c2ccccc2C(=O)N1c1ccccc1 [Compound 201, N-phenylphthalimide]","amount of TNF-α, Okadaic acid alone = 100%",[2]; [4],100%
same,"amount of TNF-α, Okadaic acid alone = 100%",[2]; [5],100%
same,"amount of TNF-α, Okadaic acid alone = 100%",[2]; [6],82%
same,"amount of TNF-α, Okadaic acid alone = 100%",[2]; [7],60%
same,"amount of TNF-α, Okadaic acid alone = 100%",[2]; [8],41%
